The values that follow come from patent publication US9745308B2, “Pyridazinone derivatives as phoshoinositide 3-kinases inhibitors” (CHIESI FARMACEUTICI S.p.A., priority 2014, dated 2017).

The target in one assay is PI3Kβ (Homo sapiens, UniProt P42338). Kind of assay: PI3K enzyme inhibitory activity in the cell free assay (ADP-Glo Kinase Assay), PI3K beta.
In another assay the target is PI3Kγ (Homo sapiens, UniProt P48736). The assay is described as follows: PI3K enzyme inhibitory activity in the cell free assay (ADP-Glo Kinase Assay), PI3K gamma.
Sequence of PI3Kγ (P48736 whole entry): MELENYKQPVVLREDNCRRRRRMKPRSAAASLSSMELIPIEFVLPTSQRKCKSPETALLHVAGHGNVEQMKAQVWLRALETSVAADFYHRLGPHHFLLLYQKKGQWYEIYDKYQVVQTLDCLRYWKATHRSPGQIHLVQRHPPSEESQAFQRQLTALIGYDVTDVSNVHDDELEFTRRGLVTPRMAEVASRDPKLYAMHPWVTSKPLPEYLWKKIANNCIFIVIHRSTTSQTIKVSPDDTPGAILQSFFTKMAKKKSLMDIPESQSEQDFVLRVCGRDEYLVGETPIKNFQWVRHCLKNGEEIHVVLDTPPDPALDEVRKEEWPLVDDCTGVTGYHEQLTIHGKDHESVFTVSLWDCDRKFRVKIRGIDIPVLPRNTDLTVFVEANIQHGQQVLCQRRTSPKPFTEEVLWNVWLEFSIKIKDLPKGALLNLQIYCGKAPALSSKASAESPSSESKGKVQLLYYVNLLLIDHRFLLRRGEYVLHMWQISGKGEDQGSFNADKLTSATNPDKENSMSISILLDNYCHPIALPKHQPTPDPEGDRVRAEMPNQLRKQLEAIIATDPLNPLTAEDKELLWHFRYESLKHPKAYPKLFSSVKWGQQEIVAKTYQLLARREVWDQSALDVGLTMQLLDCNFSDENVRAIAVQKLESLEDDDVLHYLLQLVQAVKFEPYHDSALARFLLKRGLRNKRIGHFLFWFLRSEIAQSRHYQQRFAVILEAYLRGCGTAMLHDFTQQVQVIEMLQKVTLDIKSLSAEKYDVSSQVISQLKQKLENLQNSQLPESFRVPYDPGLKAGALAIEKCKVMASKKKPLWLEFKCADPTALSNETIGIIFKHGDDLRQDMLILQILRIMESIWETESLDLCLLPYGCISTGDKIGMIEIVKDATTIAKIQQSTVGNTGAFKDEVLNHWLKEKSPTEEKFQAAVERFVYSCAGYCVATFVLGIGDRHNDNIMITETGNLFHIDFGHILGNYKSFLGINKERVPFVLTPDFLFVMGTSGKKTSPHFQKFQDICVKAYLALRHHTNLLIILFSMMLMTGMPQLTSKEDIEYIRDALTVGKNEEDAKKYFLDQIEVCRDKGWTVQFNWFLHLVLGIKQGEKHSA
Another assay has as its target PI3Kδ (Homo sapiens, UniProt O00329). Kind of assay: PI3K enzyme inhibitory activity in the cell free assay (ADP-Glo Kinase Assay), PI3K delta. (In general: In ADP-Glo the light output rises with the ADP produced.)
In a further assay the target is PI3Kα (Homo sapiens, UniProt P42336). Kind of assay: PI3K enzyme inhibitory activity in the cell free assay (ADP-Glo Kinase Assay), PI3K alpha.
Sequence of PI3Kα (P42336 whole entry): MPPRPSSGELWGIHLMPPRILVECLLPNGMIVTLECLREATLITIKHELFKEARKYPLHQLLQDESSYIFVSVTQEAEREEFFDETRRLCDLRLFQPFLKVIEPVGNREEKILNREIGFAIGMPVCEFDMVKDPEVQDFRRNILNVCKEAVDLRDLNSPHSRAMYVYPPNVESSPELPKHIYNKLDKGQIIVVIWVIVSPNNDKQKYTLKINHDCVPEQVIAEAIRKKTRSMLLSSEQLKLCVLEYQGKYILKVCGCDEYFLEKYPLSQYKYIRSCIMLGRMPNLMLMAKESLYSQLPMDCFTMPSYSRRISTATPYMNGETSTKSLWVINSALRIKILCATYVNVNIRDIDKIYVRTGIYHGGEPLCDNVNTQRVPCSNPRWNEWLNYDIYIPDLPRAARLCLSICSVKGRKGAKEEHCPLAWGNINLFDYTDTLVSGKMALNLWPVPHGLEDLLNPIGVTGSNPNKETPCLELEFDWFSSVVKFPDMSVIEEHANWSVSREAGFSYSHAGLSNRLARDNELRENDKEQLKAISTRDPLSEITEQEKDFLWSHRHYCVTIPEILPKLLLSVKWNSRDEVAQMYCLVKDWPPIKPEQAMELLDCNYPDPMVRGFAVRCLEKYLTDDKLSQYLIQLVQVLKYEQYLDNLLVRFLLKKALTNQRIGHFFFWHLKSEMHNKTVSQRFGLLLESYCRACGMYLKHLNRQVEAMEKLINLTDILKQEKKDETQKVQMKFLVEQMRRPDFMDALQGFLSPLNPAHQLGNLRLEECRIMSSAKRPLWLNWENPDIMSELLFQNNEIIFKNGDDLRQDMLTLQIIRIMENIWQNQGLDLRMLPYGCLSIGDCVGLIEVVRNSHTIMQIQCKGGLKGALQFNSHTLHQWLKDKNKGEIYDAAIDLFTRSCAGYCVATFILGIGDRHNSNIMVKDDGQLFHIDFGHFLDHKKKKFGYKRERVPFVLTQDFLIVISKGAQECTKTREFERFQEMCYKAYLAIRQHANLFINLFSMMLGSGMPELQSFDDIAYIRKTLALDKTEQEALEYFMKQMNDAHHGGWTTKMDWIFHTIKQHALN
Sequence of PI3Kα (P27986 whole entry partner): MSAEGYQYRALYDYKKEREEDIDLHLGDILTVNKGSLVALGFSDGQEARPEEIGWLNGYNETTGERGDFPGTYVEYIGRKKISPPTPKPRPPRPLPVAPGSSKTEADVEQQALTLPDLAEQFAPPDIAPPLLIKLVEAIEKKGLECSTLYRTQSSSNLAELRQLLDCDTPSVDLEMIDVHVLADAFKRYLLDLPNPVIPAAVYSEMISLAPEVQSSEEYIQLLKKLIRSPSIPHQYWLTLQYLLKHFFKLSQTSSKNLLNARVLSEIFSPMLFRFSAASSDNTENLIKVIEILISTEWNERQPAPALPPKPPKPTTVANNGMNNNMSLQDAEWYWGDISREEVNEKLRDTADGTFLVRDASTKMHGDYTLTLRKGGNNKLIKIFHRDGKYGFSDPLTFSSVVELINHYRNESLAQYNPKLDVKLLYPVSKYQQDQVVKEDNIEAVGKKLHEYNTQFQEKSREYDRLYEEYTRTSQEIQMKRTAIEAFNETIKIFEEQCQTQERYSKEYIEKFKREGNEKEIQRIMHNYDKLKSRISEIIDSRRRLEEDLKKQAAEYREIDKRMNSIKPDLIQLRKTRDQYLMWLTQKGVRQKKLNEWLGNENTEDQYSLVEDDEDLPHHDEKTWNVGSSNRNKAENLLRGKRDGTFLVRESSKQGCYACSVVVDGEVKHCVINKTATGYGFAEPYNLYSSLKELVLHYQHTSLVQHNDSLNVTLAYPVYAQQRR

Sequence of PI3Kβ (P42338 whole entry): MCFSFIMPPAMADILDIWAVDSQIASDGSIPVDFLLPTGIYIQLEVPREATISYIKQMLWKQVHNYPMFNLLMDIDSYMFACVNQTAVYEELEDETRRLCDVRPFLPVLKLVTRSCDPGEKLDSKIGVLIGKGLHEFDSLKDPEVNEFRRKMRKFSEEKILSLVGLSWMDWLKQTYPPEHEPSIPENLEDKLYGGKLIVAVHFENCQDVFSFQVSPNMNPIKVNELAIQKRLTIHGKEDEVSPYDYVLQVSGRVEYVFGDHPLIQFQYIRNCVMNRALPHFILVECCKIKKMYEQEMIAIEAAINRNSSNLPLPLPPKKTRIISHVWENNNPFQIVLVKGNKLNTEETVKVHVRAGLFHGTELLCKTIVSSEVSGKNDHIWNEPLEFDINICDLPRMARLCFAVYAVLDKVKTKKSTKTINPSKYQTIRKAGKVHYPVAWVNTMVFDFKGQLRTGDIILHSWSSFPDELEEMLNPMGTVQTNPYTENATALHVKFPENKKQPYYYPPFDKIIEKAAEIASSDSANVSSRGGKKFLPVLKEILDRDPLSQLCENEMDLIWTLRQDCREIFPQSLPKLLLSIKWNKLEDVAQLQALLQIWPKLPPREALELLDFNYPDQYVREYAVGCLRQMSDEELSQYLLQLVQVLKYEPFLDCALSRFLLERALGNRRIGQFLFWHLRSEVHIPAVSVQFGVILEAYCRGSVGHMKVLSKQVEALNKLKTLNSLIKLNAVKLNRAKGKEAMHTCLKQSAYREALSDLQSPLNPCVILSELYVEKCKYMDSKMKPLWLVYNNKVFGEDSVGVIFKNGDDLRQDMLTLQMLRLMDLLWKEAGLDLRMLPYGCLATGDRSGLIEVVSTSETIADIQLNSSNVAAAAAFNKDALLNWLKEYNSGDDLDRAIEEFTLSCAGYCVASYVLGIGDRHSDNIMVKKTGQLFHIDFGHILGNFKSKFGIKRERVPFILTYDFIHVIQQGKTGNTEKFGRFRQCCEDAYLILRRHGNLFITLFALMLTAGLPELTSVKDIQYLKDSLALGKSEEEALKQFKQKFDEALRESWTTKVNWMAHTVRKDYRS
Sequence of PI3Kβ (P27986 whole entry partner): as the sequence (P27986 whole entry partner) above
Sequence of PI3Kδ (O00329 whole entry): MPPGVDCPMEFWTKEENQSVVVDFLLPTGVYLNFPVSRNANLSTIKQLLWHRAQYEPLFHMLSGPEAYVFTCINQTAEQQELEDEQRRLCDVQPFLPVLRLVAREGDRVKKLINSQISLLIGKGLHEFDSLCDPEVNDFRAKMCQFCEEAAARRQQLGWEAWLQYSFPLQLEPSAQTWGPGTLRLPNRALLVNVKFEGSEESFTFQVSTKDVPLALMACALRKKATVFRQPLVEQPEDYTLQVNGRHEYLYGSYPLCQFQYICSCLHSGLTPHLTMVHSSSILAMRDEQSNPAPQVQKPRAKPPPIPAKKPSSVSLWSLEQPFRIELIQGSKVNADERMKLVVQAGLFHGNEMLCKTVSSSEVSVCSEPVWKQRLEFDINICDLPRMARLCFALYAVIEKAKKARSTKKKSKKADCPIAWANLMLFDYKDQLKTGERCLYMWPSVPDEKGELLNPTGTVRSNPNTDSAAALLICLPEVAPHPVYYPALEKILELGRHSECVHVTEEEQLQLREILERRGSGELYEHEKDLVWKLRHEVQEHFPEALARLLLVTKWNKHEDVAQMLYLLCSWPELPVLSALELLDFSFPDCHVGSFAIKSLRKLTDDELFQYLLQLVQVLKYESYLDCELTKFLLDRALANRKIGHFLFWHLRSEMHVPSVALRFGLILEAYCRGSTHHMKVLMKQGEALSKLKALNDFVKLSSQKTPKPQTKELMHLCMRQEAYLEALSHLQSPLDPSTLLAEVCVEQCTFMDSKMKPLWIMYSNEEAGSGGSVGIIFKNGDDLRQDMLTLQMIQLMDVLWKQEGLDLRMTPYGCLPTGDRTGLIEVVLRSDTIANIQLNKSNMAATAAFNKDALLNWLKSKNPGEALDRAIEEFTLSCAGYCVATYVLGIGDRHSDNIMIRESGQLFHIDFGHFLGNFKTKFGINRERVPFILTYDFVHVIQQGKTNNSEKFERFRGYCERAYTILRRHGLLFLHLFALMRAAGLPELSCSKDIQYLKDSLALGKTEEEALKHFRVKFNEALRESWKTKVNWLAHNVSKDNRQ
Sequence of PI3Kδ (P27986 whole entry partner): as the sequence (P27986 whole entry partner) above

Regarding `CC(c1cnn(-c2ccccc2)c(=O)c1)n1nc(-c2cc(O)cc(F)c2)c2c(N)ncnc21` (centres unmarked) [Example 8, 5-{1-[4-amino-3-(3-fluoro-5-hydroxyphenyl)-1H-pyrazolo[3,4-d]pyrimidin-1-yl]ethyl}-2-phenyl-2,3-dihydropyridazin-3-one], the IC50 (commonly the concentration that inhibits the measured activity by half) against PI3Kβ is less than 0.01 µM; at PI3Kγ it was 0.01 to 1 µM; at PI3Kδ it was less than 0.01 µM; at PI3Kα, 0.01 to 1 µM.
`CC(c1cc(=O)n(Cc2ccccn2)nc1-c1ccccc1)n1nc(-c2cc(O)cc(F)c2)c2c(N)ncnc21` (centres unmarked) [Example 6, 5-{1-[4-amino-3-(3-fluoro-5-hydroxyphenyl)-1H-pyrazolo[3,4-d]pyrimidin-1-yl]ethyl}-6-phenyl-2-(pyridin-2-ylmethyl)-2,3-dihydropyridazin-3-one]: the 50% inhibitory concentration (IC50) is 0.01 to 1 µM against PI3Kβ, greater than 1 µM on PI3Kγ, 0.01 to 1 µM against PI3Kδ and greater than 1 µM on PI3Kα.
`CC(Nc1ncnc(N)c1C#N)c1cc(=O)n(-c2ccccc2)nc1-c1ccccc1` (centres unmarked) [Example 23, 4-amino-6-{[1-(6-oxo-1,3-diphenyl-1,6-dihydropyridazin-4-yl)ethyl]amino}pyrimidine-5-carbonitrile]: the half-maximal inhibitory concentration (IC50) at PI3Kβ, on PI3Kγ, against PI3Kδ and at PI3Kα was greater than 1 µM throughout.
On to `CC(Nc1ncnc2[nH]cnc12)c1cc(=O)n(Cc2ccccc2)nc1-c1ccccc1` (centres unmarked) [Example 24, 2-benzyl-6-phenyl-5-{1-[(9H-purin-6-yl)amino]ethyl}-2,3-dihydropyridazin-3-one], for which the IC50 on PI3Kβ, against PI3Kγ, at PI3Kδ and at PI3Kα was greater than 1 µM in each case.
`CC(c1cnn(-c2ccccc2)c(=O)c1-c1ccccc1)n1nc(-c2cc(O)cc(F)c2)c2c(N)ncnc21` (centres unmarked) [Example 13, 5-{1-[4-amino-3-(3-fluoro-5-hydroxyphenyl)-1H-pyrazolo[3,4-d]pyrimidin-1-yl]ethyl}-2,4-diphenyl-2,3-dihydropyridazin-3-one]: the IC50 at PI3Kβ, against PI3Kγ, on PI3Kδ and on PI3Kα was 0.01 to 1 µM throughout.
As to `CC(Nc1ncnc(N)c1C#N)c1cc(=O)n(Cc2ccccc2)nc1-c1ccccc1` (centres unmarked) [Example 19, 4-amino-6-{[1-(1-benzyl-6-oxo-3-phenyl-1,6-dihydropyridazin-4-yl)ethyl]amino}pyrimidine-5-carbonitrile], the IC50 on PI3Kβ, at PI3Kγ, against PI3Kδ and on PI3Kα was greater than 1 µM each time.
As to `CC(c1cc(=O)n(CC2CC2)nc1-c1ccccc1)n1nc(-c2cc(O)cc(F)c2)c2c(N)ncnc21` (centres unmarked) [Example 4, 5-{1-[4-amino-3-(3-fluoro-5-hydroxyphenyl)-1H-pyrazolo[3,4-d]pyrimidin-1-yl]ethyl}-2-(cyclopropylmethyl)-6-phenyl-2,3-dihydropyridazin-3-one], the IC50 was 0.01 to 1 µM on PI3Kβ, greater than 1 µM at PI3Kγ, 0.01 to 1 µM against PI3Kδ and greater than 1 µM on PI3Kα.
Take `CC(c1cnn(C)c(=O)c1)n1nc(-c2cc(O)cc(F)c2)c2c(N)ncnc21` (centres unmarked) [Example 9, 5-{1-[4-amino-3-(3-fluoro-5-hydroxyphenyl)-1H-pyrazolo[3,4-d]pyrimidin-1-yl]ethyl}-2-methyl-2,3-dihydropyridazin-3-one]: the 50% inhibitory concentration (IC50) at PI3Kβ was 0.01 to 1 µM; on PI3Kγ it was 0.01 to 1 µM; against PI3Kδ, less than 0.01 µM; at PI3Kα, 0.01 to 1 µM.
For `CC(c1cnn(C)c(=O)c1-c1ccccc1)n1nc(-c2cc(O)cc(F)c2)c2c(N)ncnc21` (centres unmarked) [Example 12, 5-{1-[4-amino-3-(3-fluoro-5-hydroxyphenyl)-1H-pyrazolo[3,4-d]pyrimidin-1-yl]ethyl}-2-methyl-4-phenyl-2,3-dihydropyridazin-3-one], the IC50 was 0.01 to 1 µM on PI3Kβ, 0.01 to 1 µM against PI3Kγ, less than 0.01 µM on PI3Kδ and greater than 1 µM on PI3Kα.
With `CC(Nc1ncnc(N)c1C#N)c1cc(=O)n(C(C)C)nc1-c1ccccc1` (centres unmarked) [Example 21, 4-amino-6-({1-[6-oxo-3-phenyl-1-(propan-2-yl)-1,6-dihydropyridazin-4-yl]ethyl}amino)pyrimidine-5-carbonitrile], the IC50 at PI3Kβ, at PI3Kγ, on PI3Kδ and against PI3Kα was greater than 1 µM in each case.
With `CC(c1cnn(CCN2CCOCC2)c(=O)c1-c1ccccc1)n1nc(-c2cc(O)cc(F)c2)c2c(N)ncnc21` (centres unmarked) [Example 14, 5-{1-[4-amino-3-(3-fluoro-5-hydroxyphenyl)-1H-pyrazolo[3,4-d]pyrimidin-1-yl]ethyl}-2-[2-(morpholin-4-yl)ethyl]-4-phenyl-2,3-dihydropyridazin-3-one], the IC50 at PI3Kβ is greater than 1 µM; against PI3Kγ, greater than 1 µM; against PI3Kδ it was less than 0.01 µM; against PI3Kα, greater than 1 µM.
As to `Nc1ncnc2c1c(-c1cc(O)cc(F)c1)nn2Cc1cnn(Cc2ccccc2)c(=O)c1` [Example 18, 5-{[4-amino-3-(3-fluoro-5-hydroxyphenyl)-1H-pyrazolo[3,4-d]pyrimidin-1-yl]methyl}-2-benzyl-2,3-dihydropyridazin-3-one], the IC50 at PI3Kβ is 0.01 to 1 µM; at PI3Kγ it was 0.01 to 1 µM; against PI3Kδ, less than 0.01 µM; at PI3Kα, 0.01 to 1 µM.
For the compound `CC(c1cnn(-c2cccnc2)c(=O)c1-c1ccccc1)n1nc(-c2cc(O)cc(F)c2)c2c(N)ncnc21` (centres unmarked) [Example 15, 5-{1-[4-amino-3-(3-fluoro-5-hydroxyphenyl)-1H-pyrazolo[3,4-d]pyrimidin-1-yl]ethyl}-4-phenyl-2-(pyridin-3-yl)-2,3-dihydropyridazin-3-one], the half-maximal inhibitory concentration (IC50) against PI3Kβ was 0.01 to 1 µM; on PI3Kγ, 0.01 to 1 µM; against PI3Kδ it was less than 0.01 µM; against PI3Kα, greater than 1 µM.
With `CC(c1cc(=O)n(C)nc1-c1ccccc1)n1nc(-c2cc(O)cc(F)c2)c2c(N)ncnc21` (centres unmarked) [Example 2, 5-{1-[4-amino-3-(3-fluoro-5-hydroxyphenyl)-1H-pyrazolo[3,4-d]pyrimidin-1-yl]ethyl}-2-methyl-6-phenyl-2,3-dihydropyridazin-3-one], the IC50 on PI3Kβ is 0.01 to 1 µM; at PI3Kγ, 0.01 to 1 µM; against PI3Kδ, 0.01 to 1 µM; against PI3Kα, greater than 1 µM.
In the case of `CC(C)n1nc(-c2ccccc2)c(C(C)n2nc(-c3cc(O)cc(F)c3)c3c(N)ncnc32)cc1=O` (centres unmarked) [Example 3, 5-{1-[4-amino-3-(3-fluoro-5-hydroxyphenyl)-1H-pyrazolo[3,4-d]pyrimidin-1-yl]ethyl}-6-phenyl-2-(propan-2-yl)-2,3-dihydropyridazin-3-one], the half-inhibitory concentration (IC50) is 0.01 to 1 µM against PI3Kβ, greater than 1 µM against PI3Kγ, 0.01 to 1 µM at PI3Kδ and greater than 1 µM on PI3Kα.
With `CC(c1cc(=O)n(Cc2ccccc2)nc1-c1ccccc1)n1nc(-c2cc(O)cc(F)c2)c2c(N)ncnc21` (centres unmarked) [Example 1, 5-{1-[4-amino-3-(3-fluoro-5-hydroxyphenyl)-1H-pyrazolo[3,4-d]pyrimidin-1-yl]ethyl}-2-benzyl-6-phenyl-2,3-dihydropyridazin-3-one], the IC50 against PI3Kβ is 0.01 to 1 µM; against PI3Kγ, greater than 1 µM; at PI3Kδ, 0.01 to 1 µM; at PI3Kα, greater than 1 µM.
Turning to `CC(Nc1ncnc(N)c1C#N)c1cc(=O)n(CC2CC2)nc1-c1ccccc1` (centres unmarked) [Example 22, 4-amino-6-({1-[1-(cyclopropylmethyl)-6-oxo-3-phenyl-1,6-dihydropyridazin-4-yl]ethyl}amino)pyrimidine-5-carbonitrile], the IC50 at PI3Kβ, on PI3Kγ, against PI3Kδ and on PI3Kα was greater than 1 µM throughout.
For `CC(Nc1ncnc(N)c1C#N)c1cc(=O)n(C)nc1-c1ccccc1` (centres unmarked) [Example 20, 4-amino-6-(1-(1-methyl-6-oxo-3-phenyl-1,6-dihydropyridazin-4-yl)ethylamino)pyrimidine-5-carbonitrile], the IC50 on PI3Kβ is greater than 1 µM; against PI3Kγ, greater than 1 µM; against PI3Kδ, 0.01 to 1 µM; against PI3Kα, greater than 1 µM.
Turning to `CC(c1cnn(Cc2ccccc2)c(=O)c1)n1nc(-c2cc(O)cc(F)c2)c2c(N)ncnc21` (centres unmarked) [Example 7, 5-{1-[4-amino-3-(3-fluoro-5-hydroxyphenyl)-1H-pyrazolo[3,4-d]pyrimidin-1-yl]ethyl}-2-benzyl-2,3-dihydropyridazin-3-one], the IC50 against PI3Kβ is less than 0.01 µM; against PI3Kγ it was 0.01 to 1 µM; on PI3Kδ, less than 0.01 µM; against PI3Kα it was 0.01 to 1 µM.
Take `CC(c1cc(=O)n(-c2ccccc2)nc1-c1ccccc1)n1nc(-c2cc(O)cc(F)c2)c2c(N)ncnc21` (centres unmarked) [Example 5, 5-{1-[4-amino-3-(3-fluoro-5-hydroxyphenyl)-1H-pyrazolo[3,4-d]pyrimidin-1-yl]ethyl}-2,6-diphenyl-2,3-dihydropyridazin-3-one]: the IC50 on PI3Kβ was 0.01 to 1 µM; at PI3Kγ, 0.01 to 1 µM; at PI3Kδ, 0.01 to 1 µM; on PI3Kα, greater than 1 µM.
